# Measured values from PubChem BioAssay (NCI).
#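 At the GI50, growth is halved. The concentration for full growth arrest is given as TGI.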
# How the values were obtained:
# Test in all cases: NCI-60 cell line screen, 384-well format
# HCT-15 colon = tested on: HCT-15 colon
# T-47D breast = tested on: T-47D breast
# OVCAR-4 ovarian = tested on: OVCAR-4 ovarian
# A498 renal = tested on: A498 renal
# SNB-75 CNS = tested on: SNB-75 CNS
# IGROV1 ovarian = tested on: IGROV1 ovarian
# MCF7 breast = tested on: MCF7 breast
# DU-145 prostate = tested on: DU-145 prostate
# NCI-H460 NSCLC = tested on: NCI-H460 NSCLC
# MALME-3M melanoma = tested on: MALME-3M melanoma
# SF-539 CNS = tested on: SF-539 CNS
# SK-OV-3 ovarian = tested on: SK-OV-3 ovarian
# CAKI-1 renal = tested on: CAKI-1 renal
# HL-60(TB) leukemia = tested on: HL-60(TB) leukemia
# NCI-H226 lung = tested on: NCI-H226 lung
# COLO 205 colon = tested on: COLO 205 colon
# OVCAR-5 ovarian = tested on: OVCAR-5 ovarian
# HOP-62 NSCLC = tested on: HOP-62 NSCLC
# HS 578T breast = tested on: HS 578T breast
# M14 melanoma = tested on: M14 melanoma
# A549 NSCLC = tested on: A549 NSCLC
# SN12C renal = tested on: SN12C renal
# UACC-62 melanoma = tested on: UACC-62 melanoma
# SW-620 colon = tested on: SW-620 colon
# SK-MEL-5 melanoma = tested on: SK-MEL-5 melanoma
# SF-268 CNS = tested on: SF-268 CNS
# BT-549 breast = tested on: BT-549 breast
# NCI-H522 lung = tested on: NCI-H522 lung
# TK-10 renal = tested on: TK-10 renal
# HOP-92 NSCLC = tested on: HOP-92 NSCLC
# NCI/ADR-RES ovarian = tested on: NCI/ADR-RES ovarian
# EKVX NSCLC = tested on: EKVX NSCLC
# NCI-H322M lung = tested on: NCI-H322M lung
# 786-0 renal = tested on: 786-0 renal
# OVCAR-8 ovarian = tested on: OVCAR-8 ovarian
# HT29 colon = tested on: HT29 colon
# KM12 colon = tested on: KM12 colon
# RPMI-8226 leukemia = tested on: RPMI-8226 leukemia
# CCRF-CEM leukemia = tested on: CCRF-CEM leukemia
# U251 glioblastoma = tested on: U251 glioblastoma
# ACHN renal = tested on: ACHN renal
# SF-295 CNS = tested on: SF-295 CNS
# MDA-MB-231 breast = tested on: MDA-MB-231 breast
# MDA-MB-468 breast = tested on: MDA-MB-468 breast
# UACC-257 melanoma = tested on: UACC-257 melanoma
# NCI-H23 lung = tested on: NCI-H23 lung
# RXF 393 renal = tested on: RXF 393 renal
# SK-MEL-28 melanoma = tested on: SK-MEL-28 melanoma
# HCC-2998 colon = tested on: HCC-2998 colon
# MOLT-4 leukemia = tested on: MOLT-4 leukemia
# PC-3 prostate = tested on: PC-3 prostate
# SNB-19 CNS = tested on: SNB-19 CNS
# SK-MEL-2 melanoma = tested on: SK-MEL-2 melanoma
# MDA-MB-435 melanoma = tested on: MDA-MB-435 melanoma
# OVCAR-3 ovarian = tested on: OVCAR-3 ovarian
# SR leukemia = tested on: SR leukemia
smiles,measurement,setting,value
CC1(C)CCC2=C(O1)c1ccccc1C(=O)C2=O,GI50,HCT-15 colon,1840 nM
same,TGI,HCT-15 colon,3260 nM
same,GI50,T-47D breast,1360 nM
same,TGI,T-47D breast,2660 nM
same,GI50,OVCAR-4 ovarian,2000 nM
same,TGI,OVCAR-4 ovarian,3430 nM
same,GI50,A498 renal,1940 nM
same,TGI,A498 renal,3470 nM
same,GI50,SNB-75 CNS,950 nM
same,TGI,SNB-75 CNS,2140 nM
same,GI50,IGROV1 ovarian,2020 nM
same,TGI,IGROV1 ovarian,3820 nM
same,GI50,MCF7 breast,1790 nM
same,TGI,MCF7 breast,3210 nM
same,GI50,DU-145 prostate,1850 nM
same,TGI,DU-145 prostate,3280 nM
same,GI50,NCI-H460 NSCLC,1900 nM
same,TGI,NCI-H460 NSCLC,3500 nM
same,GI50,MALME-3M melanoma,1990 nM
same,TGI,MALME-3M melanoma,3420 nM
same,GI50,SF-539 CNS,1890 nM
same,TGI,SF-539 CNS,3310 nM
same,GI50,SK-OV-3 ovarian,1750 nM
same,TGI,SK-OV-3 ovarian,3280 nM
same,GI50,CAKI-1 renal,1870 nM
same,TGI,CAKI-1 renal,3280 nM
same,GI50,HL-60(TB) leukemia,1440 nM
same,TGI,HL-60(TB) leukemia,2790 nM
same,GI50,NCI-H226 lung,2000 nM
same,TGI,NCI-H226 lung,3440 nM
same,GI50,COLO 205 colon,2270 nM
same,TGI,COLO 205 colon,3730 nM
same,GI50,OVCAR-5 ovarian,1620 nM
same,TGI,OVCAR-5 ovarian,2990 nM
same,GI50,HOP-62 NSCLC,1610 nM
same,TGI,HOP-62 NSCLC,2980 nM
same,GI50,HS 578T breast,1700 nM
same,TGI,HS 578T breast,3080 nM
same,GI50,M14 melanoma,1940 nM
same,TGI,M14 melanoma,3370 nM
same,GI50,A549 NSCLC,1910 nM
same,TGI,A549 NSCLC,3350 nM
same,GI50,SN12C renal,1610 nM
same,TGI,SN12C renal,2980 nM
same,GI50,UACC-62 melanoma,1970 nM
same,TGI,UACC-62 melanoma,3400 nM
same,GI50,SW-620 colon,1790 nM
same,TGI,SW-620 colon,3200 nM
same,GI50,SK-MEL-5 melanoma,1750 nM
same,TGI,SK-MEL-5 melanoma,3140 nM
same,GI50,SF-268 CNS,1970 nM
same,TGI,SF-268 CNS,3490 nM
same,GI50,BT-549 breast,1770 nM
same,TGI,BT-549 breast,3160 nM
same,GI50,NCI-H522 lung,1840 nM
same,TGI,NCI-H522 lung,3240 nM
same,GI50,TK-10 renal,3370 nM
same,TGI,TK-10 renal,10600 nM
same,GI50,HOP-92 NSCLC,1880 nM
same,TGI,HOP-92 NSCLC,3330 nM
same,GI50,NCI/ADR-RES ovarian,2080 nM
same,TGI,NCI/ADR-RES ovarian,3740 nM
same,GI50,EKVX NSCLC,1750 nM
same,TGI,EKVX NSCLC,3150 nM
same,GI50,NCI-H322M lung,2510 nM
same,TGI,NCI-H322M lung,5800 nM
same,GI50,786-0 renal,1840 nM
same,TGI,786-0 renal,3370 nM
same,GI50,OVCAR-8 ovarian,1980 nM
same,TGI,OVCAR-8 ovarian,3720 nM
same,GI50,HT29 colon,1880 nM
same,TGI,HT29 colon,3310 nM
same,GI50,KM12 colon,2060 nM
same,TGI,KM12 colon,3800 nM
same,GI50,RPMI-8226 leukemia,1820 nM
same,TGI,RPMI-8226 leukemia,3230 nM
same,GI50,CCRF-CEM leukemia,1890 nM
same,TGI,CCRF-CEM leukemia,3320 nM
same,GI50,U251 glioblastoma,2010 nM
same,TGI,U251 glioblastoma,3630 nM
same,GI50,ACHN renal,1900 nM
same,TGI,ACHN renal,3320 nM
same,GI50,SF-295 CNS,1480 nM
same,TGI,SF-295 CNS,2910 nM
same,GI50,MDA-MB-231 breast,1880 nM
same,TGI,MDA-MB-231 breast,3540 nM
same,GI50,MDA-MB-468 breast,1200 nM
same,TGI,MDA-MB-468 breast,2450 nM
same,GI50,UACC-257 melanoma,1670 nM
same,TGI,UACC-257 melanoma,3050 nM
same,GI50,NCI-H23 lung,1370 nM
same,TGI,NCI-H23 lung,2670 nM
same,GI50,RXF 393 renal,1930 nM
same,TGI,RXF 393 renal,3350 nM
same,GI50,SK-MEL-28 melanoma,2480 nM
same,TGI,SK-MEL-28 melanoma,3960 nM
same,GI50,HCC-2998 colon,1750 nM
same,TGI,HCC-2998 colon,3420 nM
same,GI50,MOLT-4 leukemia,1760 nM
same,TGI,MOLT-4 leukemia,3170 nM
same,GI50,PC-3 prostate,2140 nM
same,TGI,PC-3 prostate,4980 nM
same,GI50,SNB-19 CNS,1880 nM
same,TGI,SNB-19 CNS,3430 nM
same,GI50,SK-MEL-2 melanoma,3020 nM
same,TGI,SK-MEL-2 melanoma,4530 nM
same,GI50,MDA-MB-435 melanoma,1860 nM
same,TGI,MDA-MB-435 melanoma,3270 nM
same,GI50,OVCAR-3 ovarian,1790 nM
same,TGI,OVCAR-3 ovarian,3220 nM
same,GI50,SR leukemia,1890 nM
same,TGI,SR leukemia,3320 nM
